Laboratory results as given in patent US20260015632A1, “CULTURE MEDIUM COMBINATION FOR INDUCING DIFFERENTIATION OF PLURIPOTENT STEM CELLS INTO CD34+ HEMATOPOIETIC STEM/PROGENITOR CELLS” (SHENZHEN CELL INSPIRE BIOTECHNOLOGY CO., LTD., priority 2023, published 2026).

Key:
Format in all cases: cell-based, human
iPSCs [1] = test: FACS proportion of CD34+ cells, additive in second differentiation medium; conditions: Day 12; 10 μM CHIR99021 or 0.75 μM SR1 added to second differentiation medium
Protocol: After 1 to 2 days of cell spheroidization, the medium was replaced with a second differentiation medium, and then the medium was changed every 2 days for 4 to 5 days of culture. The components of the second differentiation medium included: StemPro-34 complete medium supplemented with 1% ITS-X, 1 μM β-mercaptoethanol, 50 μg/mL ascorbic acid, 1× GlutaMAX, 50 ng/mL VEGF, 50 ng/mL bFGF, 50 ng/mL BMP4, and 35 nM UM171. At this stage, the cells can be transferred to a closed system for static culture or shaking culture.
After culturing for 3 days in the second differentiation medium, the medium was replaced with a third differentiation medium. The components of the third differentiation medium included: StemPro-34™ SFM complete medium supplemented with 1% ITS-X, 1 μM β-mercaptoethanol, 50 μg/mL ascorbic acid, 1× GlutaMAX, 50 ng/mL VEGF, 50 ng/mL bFGF, 50 ng/mL SCF, 10 ng/mL FLT3L, and 30 ng/mL TPO. The expression of CD34 or CD43, and CD44 was detected by FACS. […] The proportion and fold expansion of CD34^+ cells were detected at five time points: Day 8, Day 9, Day 10, Day 11, and Day 12. […]
In order to further increase the yield and proportion of CD34^+ cells, 10 μM CHIR99021 or 0.75 μM SR1 was added to the second differentiation medium of Example 1, and the proportion of CD34^+ cells in the cell population on Day 12 was detected by FACS. […]

iPSCs [2] = test: Optimization of iNK purity and yield, flow cytometry CD56/CD45 and fold expansion; set-up: yield of HSPCs / yield of iNK cells differentiated from these HSPCs: dose or concentration left out as unconfirmed; conditions: for proportion of CD56+ or CD45+ cells / yield of iNK cells: added to fourth differentiation medium: NAD+, 0.1 ng/mL HLA-C, 1000 IU IL-2 or 15 μM SB203580; for proliferation rate of iNK cells: concentrations and media as in Example 5
Protocol: To further improve the differentiation efficiency and cytotoxicity of the obtained NK cells, UM171 was added to the second differentiation medium. […] The expression levels of CD56 and CD45 of the obtained NK cells and the cell fold expansion were measured by flow cytometry.
(§1) The cell expansion at the HSPC stage and the NK stage was calculated by dividing the number of suspension cells obtained at the sampling time point by the initial number of iPSCs at the spheroidization stage. The cell number was determined using the Countess™ 2 automated cell counter, and specific operating procedures can be found in the instrument's instructions.

iPSCs [3] = test: UM171 in second and/or third differentiation medium: yield of HSPCs and iNK cells; conditions: 35 nM UM171 added to second differentiation medium
Protocol: 35 nM UM171 was added to the second differentiation medium and/or the third differentiation medium in Example 1, and the proportion of CD34^+ cells in the cell population on Day 12 and the proportion of CD56^+ cells in the cell population on Day 35 were detected by FACS. The results at these two time points are shown in FIG. 16, which indicate that the addition of UM171 to the second differentiation medium can increase the yield of HSPCs differentiated from iPSCs and the yield of iNK cells differentiated from HSPCs.
as §1

iPSCs [4] = test: qPCR marker expression on Day 3 of iPSC differentiation, optimization of first differentiation medium; conditions: Day 3 of differentiation, 50 ng/mL BMP4, 10 μM CHIR99021; for expression of OCT4: added to first differentiation medium (mTeSR1+5 μM Y27632), alone or combined; for expression of early mesoderm and mesoderm markers (MIXL1 and T) / expression of hemogenic endothelial lineage-related markers (KDR, SCL) / expression of the HSPC marker (CD34): added to first differentiation medium
Protocol: iPSCs were aggregated into spheroids by either static spheroidization or shaking spheroidization. • 1) Static spheroidization. An appropriate number of iPSCs in a single-cell state were transferred to an AggreWell™ microwell plate, and subsequent operations were carried out according to the AggreWell™ 400 or AggreWell™ 800 instructions. Briefly, the concentration of the single-cell suspension was adjusted, and sufficient volumes of the single-cell suspension were added to each well of the AggreWell™ 400 or AggreWell™ 800 to achieve approximately 500,000 iPSCs in a single-cell state per well. Then, each well was supplemented with mTeSR™1 or TeSR™-AOF medium, and 5 μM Y27632 was added to reach a total of 5 mL/well. Then, a balance plate filled with water was prepared to match the weight and position of the AggreWell™ microwell plate in the centrifuge. The cells were then pipetted gently up and down several times to ensure uniform distribution of cells across the wells. The AggreWell™ plate was immediately centrifuged at 100 g for 3 minutes using the balanced plate prepared in the previous step to force the cells into the microwells. The plate was observed under a microscope to verify that the cells were evenly distributed in the microwells. The cells were cultured under static conditions at 37° C., 5% CO2, and 95% humidity for 1 to 2 days. • 2) Shaking spheroidization. The concentration of the single-cell suspension was adjusted, and 1.5 million iPSCs in a single-cell state were transferred to a 6-well plate. Each well was supplemented with mTeSR™1 medium containing 5 μM Y27632, 50 ng/mL BMP4, and 10 μM CHIR99021 to achieve a volume of 3 mL per well. The culture plate was placed on an orbital shaker at 60 rpm, 70 rpm, 80 rpm, or 90 rpm for culture, and the wells with uniform sized spheroids were selected for subsequent culture.
The iPSCs in the single-cell state were resuspended in the following four media after harvesting: 1) mTeSR™1+5 μM Y27632, 2) mTeSR™1+5 μM Y27632+50 ng/mL BMP4, 3) mTeSR™1+5 μM Y27632+10 μM CHIR99021, and 4) mTeSR™1+5 μM Y27632+50 ng/mL BMP4+10 μM CHIR99021. The cells were then cultured according to the method in Example 1. On Day 3 of differentiation, the cells were lysed, and mRNA was extracted and reverse-transcribed to obtain cDNA. The primers in Table 2 were used to measure the expression levels of OCT4, MIXL1, T, KDR, SCL, and CD34 in HSPCs on Day 3 of differentiation under the above-mentioned media conditions.

[5] = ABC294640 added to second and third differentiation medium

## CC(C)n1cnc2c(NCCc3ccc(O)cc3)nc(-c3csc4ccccc34)nc21 [SR1]
iPSCs [1]
  proportion of CD34+ cells in the cell population: increase

## NC(=O)c1ccc[n+]([C@@H]2O[C@H](COP(=O)([O-])OP(=O)(O)OC[C@H]3O[C@@H](n4cnc5c(N)ncnc54)[C@H](O)[C@@H]3O)[C@@H](O)[C@H]2O)c1 [NAD^+, nicotinamide adenine dinucleotide]
iPSCs [2]
  proportion of CD56+ or CD45+ cells: without affecting
  yield of iNK cells: increase
  proliferation rate of iNK cells: increase

## Cn1nnc(-c2ccc3c(c2)[nH]c2nc(Cc4ccccc4)nc(NC4CCC(N)CC4)c23)n1 (stereo not drawn) [UM171]
iPSCs [3]; Day 12
  yield of HSPCs differentiated from iPSCs: increase
iPSCs [3]; Day 35
  yield of iNK cells differentiated from HSPCs: increase

## O=C(NCc1ccncc1)C12CC3CC(C1)CC(c1ccc(Cl)cc1)(C3)C2 [ABC294640]
iPSCs [2]; [5]
  yield of HSPCs: reducing
  yield of iNK cells differentiated from these HSPCs: significantly increase
iPSCs [2]
  proliferation rate of iNK cells: increase

## Cc1c[nH]c(-c2cnc(NCCNc3ccc(C#N)cn3)nc2-c2ccc(Cl)cc2Cl)n1 [CHIR99021]
iPSCs [4]
  expression of OCT4: decreased significantly
  expression of early mesoderm and mesoderm markers (MIXL1 and T): began to decrease
  expression of hemogenic endothelial lineage-related markers (KDR, SCL): increased significantly
  expression of the HSPC marker (CD34): significantly increased
iPSCs [1]
  proportion of CD34+ cells in the cell population: increase

## C[S+]([O-])c1ccc(-c2nc(-c3ccncc3)c(-c3ccc(F)cc3)[nH]2)cc1 (stereo not drawn) [SB203580]
iPSCs [2]
  proportion of CD56+ or CD45+ cells: without affecting
  yield of iNK cells: increase
  proliferation rate of iNK cells: increase

B1: BMP4: growth factor added to the first and second differentiation medium (protein, UniProt P12644 293-408, looked up)
Bone morphogenetic protein 4: SPKHHSQRARKKNKNCRRHSLYVDFSDVGWNDWIVAPPGYQAFYCHGDCPFPLADHLNSTNHAIVQTLVNSVNSSIPKACCVPTELSAISMLYLDEYDKVVLKNYQEMVVEGCGCR
iPSCs [4]
  expression of OCT4: decreased significantly
  expression of early mesoderm and mesoderm markers (MIXL1 and T): began to decrease
  expression of hemogenic endothelial lineage-related markers (KDR, SCL): increased significantly
  expression of the HSPC marker (CD34): significantly increased
